From patent US20160143955A1, “METHOD FOR ISOLATING STROMAL VASCULAR FRACTION” (AGENCY FOR SCIENCE, TECHNOLOGY AND RESEARCH, priority 2013, published 2016)

test system: adipose-derived stem cells recovered from fat tissue; assay: Yield of adipose-derived stem cells (ASCs) after seven days of growth, compared to the collagenase-based method; format: cell-based; settings: mince 2.5 mins, incubate with agent at 37° C. for 1 hour; ASCs after seven days of growth vs collagenase-based method
Method: Fat tissue (adipose tissue) obtained as lipoaspirate or resected via surgeries are to be obtained prior conducting any of the methods as described herein. To ensure optimum cell viability, immediate isolation of stromal vascular fraction on the day the sample is obtained is recommended. However, the methods as described herein may be performed optimally within 24 hours of sample being obtained. If the methods of the present disclosure cannot be performed immediately upon harvest of sample or within 72 hours of the sample being obtained, the sample was stored at 4° C. In case of enzymatic digestion, the sample is brought to room temperature before proceeding to the isolation procedure.
Upon obtaining the sample as lipoaspirate, to remove debris, the fat tissue was washed with equal amount of buffer (such as phosphate buffered saline (PBS) or Hank's balanced salt solution (HBSS)). For example, for 50 cc or 50 gram volume of lipoaspirate, 50 ml of buffer was used. Washed sample was allowed to settle for a couple of minutes and fluid from the bottom was aspirated to leave fat layer in the top. Washing steps were repeated two times. Collected fat layer was divided into the different methods as described below.
i) Add an equal volume of collagenase solution (ml per gram or cc of fat pads) into one sterile vial and warm to 37° C. Typically, collagenase solution is composed of 2.5 μg/ml collagenase type I, 1% (wt/vol) Bovine Serum Albumin (BSA), 50 μg/ml D-glucose and 200 nM adenosine in buffer;
i) Place washed fat tissue into appropriate tubes. Add equal volume of HBSS solution. Usually 10 ml of fat is used for each variable for replicate treatment/plating. Resected fat is favorable for consistency of cell yield, but manually harvested lipoaspirates are acceptable though additional optimization work described below is recommended;
When homogenizer is to be used, mildly homogenize fat tissue samples at the lowest level setting for 1 min. As would be apparent to the skilled person in the art, different homogenizers would give very different results. […] Optimization for different type of fat tissues must be conducted to obtain optimized parameters and lengths of homogenizing time;
vi) Centrifuge samples at 450 g (about 1800 RPM) for 5 min to pellet dissociated stromal vascular fraction cells. […] Discard the top layer of floating mature adipocytes;
xii) Re-suspend pellet in buffer (PBS or HBSS; 1 ml per 100 cc original tissue). Sample out 10 μl and count cell number in 1:1 mixture of trypan blue by hemocytometer or automated cell counter.
xv) Plate into appropriate dishes and incubate culture plates in 37° C., 5% CO2 incubator. […]
The isolated stromal vascular fraction cells in the methods described above were analyzed for their qualities and yield of adipose-derived stem cells. […]

| Molecule | Yield (percentage yield of adipose-derived stem cells recovered) [%] |
| --- | --- |
| CNC[C@H](O)c1ccc(O)c(O)c1 [Epinephrine, epinephrine] | >85 |
| CC(C)NCC(O)c1ccc(O)c(O)c1 (stereo not shown) [Isoprenaline, isoprenaline] | >70 |
| Sodium deoxycholate [Sodium deoxycholate (SOC)] | 0 |
| Triton-X | 0 |
